Values joined by “and” are separate entries in the source; they are usually repeats but may differ in a detail not shown here. Equal entries are not always repeated.

As usually defined, the melting point is the temperature, or range, at which the solid turns liquid.

The first data set has as its system T47D cells. The experiment in a line: T47D cell proliferation assay (BrdU incorporation). The conditions noted are these: Homo sapiens, agonist mode, reference progestins, read-out: Estimated EC50, BrdU incorporation, individual studies. The format is cell-based. How it is done: 1. T47D cell Proliferation Assay
The objective of this assay is the determination of progestational and antiprogestational potency by using a cell proliferation assay in T47D cells. A compound's effect on DNA synthesis in T47D cells is measured.
DMEM:F12 (1:1) (GIBCO, BRL) supplemented with 10% (v/v) fetal bovine serum (not heat-inactivated), 100 U/ml penicillin, […], and 2 mM GlutaMax (GIBCO, BRL). b. Treatment medium: Minimum Essential
Medium (MEM) (#51200-038GIBCO, BRL) phenol red-free supplemented with 0.5% charcoal stripped fetal bovine serum, 100 U/ml penicillin, […] streptomycin, and 2 mM GlutaMax (GIBCO, BRL).
Stock T47 D cells are maintained in growth medium. For BrdU incorporation assay, cells are plated in 96-well plates (Falcon, Becton Dickinson Labware) at 10,000 cells/well in growth medium. […]
At the end of BrdU labeling, the medium is removed and BrdU incorporation is measured using a cell proliferation ELISA kit (#RPN 250, Amersham Life Science) according to manufacturer's instructions. […] Then 25 μl of 1 M sulfuric acid is added to each well to stop color reaction and optical density is read in a plate reader at 450 nm within 5 min.
Square root-transformed data are used for analysis of variance and nonlinear dose response curve fitting for both agonist and antagonist modes. […] EC50 or IC50 values are calculated from the retransformed values. […]
Take `CC(=O)O[C@]1(C(C)=O)CC[C@H]2[C@@H]3C[C@H](C)C4=CC(=O)CC[C@]4(C)[C@H]3CC[C@@]21C` [MPA, medroxyprogesterone acetate]: the EC50 is 0.019 nM.

A further data set deals with rat uterine decidualization. As to the kind of experiment: Rat decidualization assay. The format is in vivo. The conditions noted are these: ovariectomized rats, p.o., with progesterone 5.6 mg/kg. On the procedure:
2. Rat Decidualization Assay
b. Animals (RACUC protocol #5002)
The animals are treated once daily for seven days.
Uteri are removed and trimmed of fat.
S f. Analysis of Results:
Body weight: Mean total animal body weight (default-kg)
Decidual response: [(D-C)/C]×100%
Regarding `CC#C[C@]1(O)CC[C@H]2[C@@H]3CCC4=CC(=O)CCC4=C3[C@@H](c3ccc(N(C)C)cc3)C[C@@]21C` [RU486], the “Estimated IC50, decrease in EC50 progesterone induced decidual response” value is 0.21 mg/kg and 0.14 mg/kg.

Tested on in another data set: not given
Assay: not given
Details: not given
Take `O=c1[nH]c2ccc(-c3cccc(Cl)c3)cc2n1Cc1ccccc1` [Compound 1, 1-Benzyl-6-(3-chloro-phenyl)-1,3-dihydro-benzoimidazol-2-one]: the melting point was in the range of 168 to 169 °C.

Compound `O=c1[nH]c2ccc(-c3cccc([N+](=O)[O-])c3)cc2n1Cc1ccccc1` [Compound 2, 1-Benzyl-6-(3-nitro-phenyl)-1,3-dihydro-benzoimidazol-2-one] displayed a melting point of 202 to 203 °C.

`Cn1c(=O)[nH]c2ccc(-c3cccc(Cl)c3)cc21` [Compound 3, 6-(3-chloro-phenyl)-1-methyl-1,3-dihydro-benzoimidazol-2-one] came in with a melting point of 219 to 220 °C.

The compound `Cn1c(=O)[nH]c2ccc(-c3cccc([N+](=O)[O-])c3)cc21` [Compound 4, 1-Methyl-6-(3-nitro-phenyl)-1,3-dihydro-benzoimidazol-2-one] came in with a melting point of 264 to 265 °C.

On to `O=C1CSc2cc(-c3cccc([N+](=O)[O-])c3)ccc2N1` [Compound B1, 7-(3-Nitro-phenyl)-4H-benzo[1,4]thiazin-3-one], for which the melting point is 290 to 292 °C.

With `CCC1Sc2cc(-c3cccc([N+](=O)[O-])c3)ccc2NC1=O` (stereo not drawn) [Compound B2, 2-Ethyl-7-(3-nitro-phenyl)-4H-benzo[1,4]thiazin-3-one], the melting point is 180 °C.

`CC(C)N1CC(=O)Nc2ccc(-c3cccc(Cl)c3)cc21` [Compound C4, 6-(3-Chloro-phenyl)-4-isopropyl-3,4-dihydro-1H-quinoxalin-2-one] displayed a melting point of 146 to 150 °C.

The compound `CC(C)N1CC(=O)Nc2ccc(-c3ccc(F)c(Cl)c3)cc21` [Compound C5, 6-(3-Chloro-4-fluoro-phenyl)-4-isopropyl-3,4-dihydro-1H-quinoxalin-2-one] gave a melting point of 208 to 213 °C.

Compound `O=c1[nH]c2ccc(-c3cccc([N+](=O)[O-])c3)cc2[nH]1` [Example 9, 5-(3-Nitro-phenyl)-1,3-dihydro-benzoimidazol-2-one] displayed a melting point of 324 to 325 °C.

For the compound `O=c1[nH]c2ccc(-c3cccc([N+](=O)[O-])c3)cc2o1` [Example 11, 6-(3-Nitro-phenyl)-3H-benzooxazol-2-one], the melting point was in the range of 280 to 281 °C.

For `O=c1[nH]c2ccc(-c3cccc([N+](=O)[O-])c3)cc2s1` [Example 12, 6-(3-Nitro-phenyl)-3H-benzothiazol-2-one], the melting point lay within 276 to 277 °C.

`O=c1[nH]c2ccc(-c3cccc(Cl)c3)cc2s1` [Example 13, 6-(3-Chloro-phenyl)-3H-benzothiazol-2-one] yielded a melting point of 195 to 196 °C.

`CC(C)N1CC(=O)Nc2ccc(-c3cc(F)cc(C#N)c3)cc21` [Example 20, 6-(3-Cyano-5-fluorophenyl)-4-isopropyl-3,4-dihydro-1H-quinoxalin-2-one]: the melting point lay within 238 to 240 °C.

Compound `S=c1[nH]c2ccc(-c3cccc(Cl)c3)cc2n1Cc1ccccc1` [Example 24, 1-Benzyl-6-(3-chlorophenyl)-1,3-dihydro-2H-benzimidazole-2-thione] yielded a melting point of 211 to 212 °C.

As for `O=[N+]([O-])c1cccc(-c2ccc3[nH]c(=S)n(Cc4ccccc4)c3c2)c1` [Example 25, 1-Benzyl-6-(3-nitrophenyl)-1,3-dihydro-2H-benzimidazole-2-thione], the melting point lay in the range of 244 to 245 °C.

The compound `CN1CC(=O)Nc2ccc(-c3cccc([N+](=O)[O-])c3)cc21` [Example 26, 6-(3-Nitro-phenyl)-4-methyl-3,4-dihydro-1H-quinoxalin-2-one] showed a melting point of 237 to 243 °C.

In the case of `CC1Nc2cc(-c3ccc(Cl)cc3)ccc2NC1=O` (stereo not drawn) [Example 27, 6-(4-Chloro-phenyl)-3-methyl-3,4-dihydro-1H-quinoxalin-2-one], the melting point lay within 228 to 230 °C.

For `O=C1CN(Cc2ccccc2)c2cc(-c3cccc(Cl)c3)ccc2N1` [Example 28, 4-Benzyl-6-(3-chlorophenyl)-3,4-dihydroquinoxalin-2 (1H)-one], the melting point is 182 to 185 °C.

Consider `CC(C)OC(=O)N1CC(=S)Nc2ccc(-c3cccc(Cl)c3)cc21` [Example 30, Isopropyl 7-(3-chlorophenyl)-3-thioxo-3,4-dihydroquinoxaline-1(2H)-carboxylate], for which the melting point fell in the range of 208 to 212 °C.

Source of the values: patent US20020115853A1, “Benzimidazolones and analogues” (priority 1999, published 2002).
